Laboratory results from patent US11285218B2, “Degradation of bromodomain-containing protein 9 (BRD9) by conjugation of BRD9 inhibitors with E3 ligase ligand and methods of use” (Dana-Farber Cancer Institute, Inc., priority 2016, dated 2022).

Columns and labels:
[1] = biological target: T1, ATAD2A (Homo sapiens, UniProt Q6PL18); experiment: BromoScan single-point screen; assay type: binding; conditions: percent of protein captured on solid support vs control
T1 construct: utilizing DNA-tagged bromodomain and immobilized ligand attached to solid support
Source text: (§1) The BromoScan is an assay that measures the engagement of compounds with bromodomain proteins by utilizing DNA-tagged bromodomain and immobilized ligand attached to solid support. In the control test, DNA-tagged bromodomain binds to the ligand and the bromodomain is captured on the solid support. Compounds that compete for the bromodomain binding location on the ligand will prevent the bromodomain from binding, resulting in less protein captured on the solid support.

[2] = biological target: T2, PBRM1(2) (Homo sapiens, UniProt Q86U86); experiment: BromoScan single-point screen; assay type: binding; conditions: percent of protein captured on solid support vs control
T2 construct: utilizing DNA-tagged bromodomain and immobilized ligand attached to solid support
Source text: as §1

[3] = biological target: T3, BRD4(2) (Homo sapiens, UniProt O60885); experiment: BromoScan single-point screen; assay type: binding; conditions: percent of protein captured on solid support vs control
T3 construct: utilizing DNA-tagged bromodomain and immobilized ligand attached to solid support
Source text: as §1

[4] = biological target: T4, BRDT(2) (Homo sapiens, UniProt Q58F21); experiment: BromoScan single-point screen; assay type: binding; conditions: percent of protein captured on solid support vs control
T4 construct: utilizing DNA-tagged bromodomain and immobilized ligand attached to solid support
Source text: as §1

[5] = biological target: T5, ATAD2B (Homo sapiens, UniProt Q9ULI0); experiment: BromoScan single-point screen; assay type: binding; conditions: percent of protein captured on solid support vs control
T5 construct: utilizing DNA-tagged bromodomain and immobilized ligand attached to solid support
Source text: as §1

[6] = biological target: T6, FALZ (Homo sapiens, UniProt Q12830); experiment: BromoScan single-point screen; assay type: binding; conditions: percent of protein captured on solid support vs control
T6 construct: utilizing DNA-tagged bromodomain and immobilized ligand attached to solid support
Source text: as §1

[7] = biological target: T7, BRDT(1) (Homo sapiens, UniProt Q58F21); experiment: BromoScan single-point screen; assay type: binding; conditions: percent of protein captured on solid support vs control
T7 construct: utilizing DNA-tagged bromodomain and immobilized ligand attached to solid support
Source text: as §1

[8] = biological target: T8, CREBBP (Homo sapiens, UniProt Q92793); experiment: BromoScan single-point screen; assay type: binding; conditions: percent of protein captured on solid support vs control
T8 construct: utilizing DNA-tagged bromodomain and immobilized ligand attached to solid support
Source text: as §1

[9] = biological target: T9, TAF1L(2) (Homo sapiens, UniProt Q8IZX4); experiment: BromoScan single-point screen; assay type: binding; conditions: percent of protein captured on solid support vs control
T9 construct: utilizing DNA-tagged bromodomain and immobilized ligand attached to solid support
Source text: as §1

[10] = biological target: T10, BRPF1 (Homo sapiens, UniProt P55201); experiment: BromoScan single-point screen; assay type: binding; conditions: percent of protein captured on solid support vs control
T10 construct: utilizing DNA-tagged bromodomain and immobilized ligand attached to solid support
Source text: as §1

[11] = biological target: T11, GCN5L2 (Homo sapiens, UniProt Q92830); experiment: BromoScan single-point screen; assay type: binding; conditions: percent of protein captured on solid support vs control
T11 construct: utilizing DNA-tagged bromodomain and immobilized ligand attached to solid support
Source text: as §1

[12] = biological target: T12, CECR2 (Homo sapiens, UniProt Q9BXF3); experiment: BromoScan single-point screen; assay type: binding; conditions: percent of protein captured on solid support vs control
T12 construct: utilizing DNA-tagged bromodomain and immobilized ligand attached to solid support
Source text: as §1

[13] = biological target: T13, BRD3(2) (Homo sapiens, UniProt Q15059); experiment: BromoScan single-point screen; assay type: binding; conditions: percent of protein captured on solid support vs control
T13 construct: utilizing DNA-tagged bromodomain and immobilized ligand attached to solid support
Source text: as §1

[14] = biological target: T14, BRD2(1) (Homo sapiens, UniProt P25440); experiment: BromoScan single-point screen; assay type: binding; conditions: percent of protein captured on solid support vs control
T14 construct: utilizing DNA-tagged bromodomain and immobilized ligand attached to solid support
Source text: as §1

[15] = biological target: T15, BRD2(2) (Homo sapiens, UniProt P25440); experiment: BromoScan single-point screen; assay type: binding; conditions: percent of protein captured on solid support vs control
T15 construct: utilizing DNA-tagged bromodomain and immobilized ligand attached to solid support
Source text: as §1

[16] = biological target: T16, BRD9 (Homo sapiens, UniProt Q9H8M2); experiment: BromoScan single-point screen; assay type: binding; conditions: percent of protein captured on solid support vs control
T16 construct: utilizing DNA-tagged bromodomain and immobilized ligand attached to solid support
Source text: as §1

[17] = biological target: T17, BAZ^2B (Homo sapiens, UniProt Q9UIF8); experiment: BromoScan single-point screen; assay type: binding; conditions: percent of protein captured on solid support vs control
T17 construct: utilizing DNA-tagged bromodomain and immobilized ligand attached to solid support
Source text: as §1

[18] = biological target: T18, TAF1(2) (Homo sapiens, UniProt P21675); experiment: BromoScan single-point screen; assay type: binding; conditions: percent of protein captured on solid support vs control
T18 construct: utilizing DNA-tagged bromodomain and immobilized ligand attached to solid support
Source text: as §1

[19] = biological target: T19, BRPF3 (Homo sapiens, UniProt Q9ULD4); experiment: BromoScan single-point screen; assay type: binding; conditions: percent of protein captured on solid support vs control
T19 construct: utilizing DNA-tagged bromodomain and immobilized ligand attached to solid support
Source text: as §1

[20] = biological target: T20, WDR9(2) (Homo sapiens, UniProt Q9NSI6); experiment: BromoScan single-point screen; assay type: binding; conditions: percent of protein captured on solid support vs control
T20 construct: utilizing DNA-tagged bromodomain and immobilized ligand attached to solid support
Source text: as §1

[21] = biological target: T21, PCAF (Homo sapiens, UniProt Q92831); experiment: BromoScan single-point screen; assay type: binding; conditions: percent of protein captured on solid support vs control
T21 construct: utilizing DNA-tagged bromodomain and immobilized ligand attached to solid support
Source text: as §1

[22] = biological target: T22, PBRM1(5) (Homo sapiens, UniProt Q86U86); experiment: BromoScan single-point screen; assay type: binding; conditions: percent of protein captured on solid support vs control
T22 construct: utilizing DNA-tagged bromodomain and immobilized ligand attached to solid support
Source text: as §1

[23] = biological target: T23, BAZ^2A (Homo sapiens, UniProt Q9UIF9); experiment: BromoScan single-point screen; assay type: binding; conditions: percent of protein captured on solid support vs control
T23 construct: utilizing DNA-tagged bromodomain and immobilized ligand attached to solid support
Source text: as §1

[24] = biological target: T24, EP300 (Homo sapiens, UniProt Q09472); experiment: BromoScan single-point screen; assay type: binding; conditions: percent of protein captured on solid support vs control
T24 construct: utilizing DNA-tagged bromodomain and immobilized ligand attached to solid support
Source text: as §1

[25] = biological target: BRD7 (Homo sapiens, UniProt Q9NPI1); experiment: BRD7 immunoblot in MOLM-13; conditions: MOLM-13, 4 hour treatment
Protocol: (§2) In additional experiments, cells were washed with PBS, before being lysed in RIPA buffer supplemented with 1×HALT™ protease inhibitor cocktail (Thermo Scientific) for 10 min on ice, followed by low-amplitude sonication for 10 seconds at 4° C. […] In soluble material was removed by centrifugation at 20,000×g for 20 min before protein content was quantified by BCA assay (Pierce). […] Blots were imaged using fluorescence-labeled secondary antibodies (LI-COR) on the OdysseyCLxImager (LI-COR).

[26] = biological target: T25, BRD9 (Homo sapiens, UniProt Q9H8M2); experiment: BRD9 immunoblot in MM1S CRBN knockout cells; conditions: MM.1S CRBN knockout cell line, 4 hour treatment, indicated doses
T25 sequence (Q9H8M2 1-597): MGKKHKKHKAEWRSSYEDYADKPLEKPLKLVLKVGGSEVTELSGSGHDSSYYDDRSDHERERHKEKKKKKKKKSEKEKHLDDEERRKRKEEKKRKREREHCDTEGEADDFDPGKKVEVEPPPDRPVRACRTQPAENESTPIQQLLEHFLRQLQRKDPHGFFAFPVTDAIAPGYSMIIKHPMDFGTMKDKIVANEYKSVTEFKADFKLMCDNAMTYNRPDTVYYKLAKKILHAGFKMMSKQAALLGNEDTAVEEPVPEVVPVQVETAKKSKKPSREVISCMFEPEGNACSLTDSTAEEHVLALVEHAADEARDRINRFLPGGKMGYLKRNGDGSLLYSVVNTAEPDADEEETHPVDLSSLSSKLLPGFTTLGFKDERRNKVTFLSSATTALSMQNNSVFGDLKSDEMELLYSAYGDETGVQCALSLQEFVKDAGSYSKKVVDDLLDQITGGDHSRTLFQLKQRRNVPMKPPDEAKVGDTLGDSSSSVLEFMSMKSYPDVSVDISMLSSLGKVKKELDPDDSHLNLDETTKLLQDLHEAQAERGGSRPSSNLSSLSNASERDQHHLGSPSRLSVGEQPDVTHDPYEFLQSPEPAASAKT
Protocol: as §2

[27] = tested on: TRIM33 (PHD, Bromo.); experiment: BromoScan single-point screen; assay type: binding, human; conditions: percent of protein captured on solid support vs control
Source text: as §1

[28] = tested on: MV411 cell line; experiment: ATPlite viability assay, MV4;11; conditions: MV4;11, 72 hours; in words
Protocol: (§3) 500 cells/well were plated at a volume of 40 μL/well in white tissue culture treated 384 well assay plates (Thermo Scientific) before DMSO compound stock was added from pre-diluted plates by pin transfer using a Janus Workstation (PerkinElmer, USA). […] Assay plates were allowed to equilibrate to RT for 30 min before reconstituted ATPlite 1 Step reagent (Perkin Elmer) was dispensed at 1:1 volume/well by EL406 automated liquid handler (Biotek, USA).

[29] = tested on: MOLM-13 cell line; experiment: ATPlite viability assay, MOLM-13; conditions: MOLM-13, 72 hours; in words
Protocol: as §3

BRD7, sequence (Q9NPI1 whole entry): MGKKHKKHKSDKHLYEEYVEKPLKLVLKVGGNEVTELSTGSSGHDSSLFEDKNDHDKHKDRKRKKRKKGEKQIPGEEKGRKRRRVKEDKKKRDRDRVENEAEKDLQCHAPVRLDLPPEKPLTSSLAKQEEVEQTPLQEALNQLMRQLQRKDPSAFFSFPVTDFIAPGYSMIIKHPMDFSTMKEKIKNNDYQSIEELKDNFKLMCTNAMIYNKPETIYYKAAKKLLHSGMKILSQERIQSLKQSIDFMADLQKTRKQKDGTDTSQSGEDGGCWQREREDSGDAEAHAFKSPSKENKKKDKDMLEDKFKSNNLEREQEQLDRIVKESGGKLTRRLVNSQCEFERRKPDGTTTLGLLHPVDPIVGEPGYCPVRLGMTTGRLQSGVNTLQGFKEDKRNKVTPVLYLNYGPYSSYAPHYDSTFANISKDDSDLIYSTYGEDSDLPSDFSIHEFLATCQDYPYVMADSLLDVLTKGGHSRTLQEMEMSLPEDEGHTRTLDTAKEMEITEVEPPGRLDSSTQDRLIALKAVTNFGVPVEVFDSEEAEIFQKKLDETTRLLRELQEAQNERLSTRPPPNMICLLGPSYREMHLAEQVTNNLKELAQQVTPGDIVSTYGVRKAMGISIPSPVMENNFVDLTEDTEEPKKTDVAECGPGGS
T2 sequence (Q86U86 177-287 limits assumed): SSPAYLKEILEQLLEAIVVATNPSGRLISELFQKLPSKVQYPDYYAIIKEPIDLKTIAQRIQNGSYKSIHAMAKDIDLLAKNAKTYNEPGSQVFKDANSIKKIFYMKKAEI
T5 sequence (Q9ULI0 951-1066 limits assumed): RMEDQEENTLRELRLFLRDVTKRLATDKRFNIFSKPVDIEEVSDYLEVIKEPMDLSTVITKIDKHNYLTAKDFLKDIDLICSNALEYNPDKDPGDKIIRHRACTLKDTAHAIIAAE
T23 sequence (Q9UIF9 1793-1897 limits assumed): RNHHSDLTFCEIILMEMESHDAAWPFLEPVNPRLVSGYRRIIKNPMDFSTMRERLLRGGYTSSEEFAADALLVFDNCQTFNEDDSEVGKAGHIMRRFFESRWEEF
T10 sequence (P55201 628-732 limits assumed): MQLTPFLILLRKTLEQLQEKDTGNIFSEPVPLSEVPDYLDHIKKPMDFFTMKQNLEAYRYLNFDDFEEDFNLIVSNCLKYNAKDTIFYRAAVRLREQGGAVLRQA
T8 sequence (Q92793 1085-1192 limits assumed): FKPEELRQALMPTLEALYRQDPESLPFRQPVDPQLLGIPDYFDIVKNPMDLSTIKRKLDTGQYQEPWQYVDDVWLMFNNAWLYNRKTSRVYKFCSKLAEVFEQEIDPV
T22 sequence (Q86U86 653-763 limits assumed): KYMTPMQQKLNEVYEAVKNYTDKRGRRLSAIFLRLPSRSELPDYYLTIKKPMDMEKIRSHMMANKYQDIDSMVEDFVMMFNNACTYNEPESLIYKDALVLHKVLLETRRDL
T21 sequence (Q92831 723-827 limits assumed): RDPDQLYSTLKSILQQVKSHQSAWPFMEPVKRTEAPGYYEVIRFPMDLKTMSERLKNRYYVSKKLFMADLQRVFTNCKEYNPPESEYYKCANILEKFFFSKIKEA
T1 sequence (Q6PL18 980-1092 limits assumed): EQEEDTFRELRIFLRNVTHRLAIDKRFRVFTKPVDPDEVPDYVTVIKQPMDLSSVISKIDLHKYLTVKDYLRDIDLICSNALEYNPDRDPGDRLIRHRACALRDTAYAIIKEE
T15 sequence (P25440 344-453 limits assumed): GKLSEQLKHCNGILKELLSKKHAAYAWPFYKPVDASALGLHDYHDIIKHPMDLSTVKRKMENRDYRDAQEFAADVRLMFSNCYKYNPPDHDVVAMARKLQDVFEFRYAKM
T19 sequence (Q9ULD4 589-693 limits assumed): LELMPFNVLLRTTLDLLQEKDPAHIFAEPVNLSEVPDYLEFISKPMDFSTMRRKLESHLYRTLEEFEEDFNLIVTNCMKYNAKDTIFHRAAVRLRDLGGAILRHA
T14 sequence (P25440 74-180 limits assumed): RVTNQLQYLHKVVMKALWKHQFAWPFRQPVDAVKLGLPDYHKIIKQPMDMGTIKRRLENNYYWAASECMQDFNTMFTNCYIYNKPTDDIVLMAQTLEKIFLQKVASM
T24 sequence (Q09472 1049-1156 limits assumed): as the sequence (Q92793 1085-1192 limits assumed) above, with N47S, V73I, F93Y, A98S counted along it
T20 sequence (Q9NSI6 1313-1418 limits assumed): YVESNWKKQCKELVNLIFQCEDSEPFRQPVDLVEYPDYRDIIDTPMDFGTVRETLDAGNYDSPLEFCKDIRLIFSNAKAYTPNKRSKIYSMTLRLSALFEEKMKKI
T12 sequence (Q9BXF3 434-538 limits assumed): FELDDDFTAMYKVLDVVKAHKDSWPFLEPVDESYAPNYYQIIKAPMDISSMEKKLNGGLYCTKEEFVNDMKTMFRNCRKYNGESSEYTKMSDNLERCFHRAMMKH
T9 sequence (Q8IZX4 1517-1626 limits assumed): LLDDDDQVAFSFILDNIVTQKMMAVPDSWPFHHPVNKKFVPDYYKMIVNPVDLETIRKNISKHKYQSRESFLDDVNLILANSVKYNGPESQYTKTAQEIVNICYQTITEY
T13 sequence (Q15059 306-415 limits assumed): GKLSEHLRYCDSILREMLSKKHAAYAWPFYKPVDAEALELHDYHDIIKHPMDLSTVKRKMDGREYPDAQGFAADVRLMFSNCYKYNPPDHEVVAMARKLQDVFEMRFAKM
T11 sequence (Q92830 728-832 limits assumed): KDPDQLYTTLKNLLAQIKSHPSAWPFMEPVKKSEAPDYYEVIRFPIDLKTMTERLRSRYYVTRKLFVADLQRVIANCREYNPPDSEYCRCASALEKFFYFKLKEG
T17 sequence (Q9UIF8 2060-2164 limits assumed): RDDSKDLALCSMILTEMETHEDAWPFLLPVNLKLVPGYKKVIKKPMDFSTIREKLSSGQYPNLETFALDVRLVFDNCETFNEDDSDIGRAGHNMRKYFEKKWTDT
T18 sequence (P21675 1519-1628 limits assumed): as the sequence (Q8IZX4 1517-1626 limits assumed) above, with M46V, V51M, I102V, I107L counted along it

COc1cc(-c2cn(C)c(=O)c3cc(C(=N)NC4CCS(=O)(=O)CC4)sc23)ccc1OCC(=O)NCCCCCCCCNc1cccc2c1CN(C1CCC(=O)NC1=O)C2=O (stereo not shown) [Compound I-17]
% Ctrl @ 1 μM [1]: 100 % Ctrl | % Ctrl @ 1 μM [2]: 68 % Ctrl | % Ctrl @ 1 μM [3]: 40 % Ctrl | % Ctrl @ 1 μM [4]: 57 % Ctrl | % Ctrl @ 1 μM [5]: 60 % Ctrl | % Ctrl @ 1 μM [6]: 60 % Ctrl | % Ctrl @ 1 μM [7]: 18 % Ctrl | % Ctrl @ 1 μM [8]: 10 % Ctrl | % Ctrl @ 1 μM [9]: 54 % Ctrl | % Ctrl @ 1 μM [10]: 7.6 % Ctrl | % Ctrl @ 1 μM [11]: 62 % Ctrl | % Ctrl @ 1 μM [12]: 0.15 % Ctrl | % Ctrl @ 1 μM [13]: 19 % Ctrl | % Ctrl @ 1 μM [14]: 4 % Ctrl | % Ctrl @ 1 μM [15]: 43 % Ctrl | % Ctrl @ 1 μM [16]: 0.25 % Ctrl | % Ctrl @ 1 μM [17]: 74 % Ctrl | % Ctrl @ 1 μM [18]: 19 % Ctrl | % Ctrl @ 1 μM [19]: 85 % Ctrl | % Ctrl @ 1 μM [20]: 83 % Ctrl | % Ctrl @ 1 μM [21]: 55 % Ctrl | % Ctrl @ 1 μM [22]: 71 % Ctrl | % Ctrl @ 1 μM [23]: 42 % Ctrl | % Ctrl @ 1 μM [24]: 37 % Ctrl | BRD7 degradation (immunoblot) [25]: degradation was observed | BRD9 degradation (immunoblot) [26]: little to no BRD9 degradation | % Ctrl @ 1 μM [27]: 100 % Ctrl | half-maximal anti-proliferative concentration [28]: low nanomolar | maximal efficacy on cell proliferation [28]: significantly exceeded that of the more selective I-25 | half-maximal anti-proliferative concentration [29]: low nanomolar | maximal efficacy on cell proliferation [29]: significantly exceeded that of the more selective I-25
